This passage reports TGI and GI50 results from PubChem BioAssay (NCI).

Some test systems named below: OVCAR-3 ovarian; SN12C renal; DU-145 prostate; HCT-15 colon; SF-539 CNS; NCI/ADR-RES ovarian; RPMI-8226 leukemia; SNB-19 CNS; OVCAR-5 ovarian; SK-MEL-28 melanoma.
Holding throughout (assay): DTP human tumour cell line panel, 48 h

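Method: 48-hour compound exposure of cells in 96-well plates, five concentrations, linear interpolation of endpoints. The concentration for 50% growth inhibition is given as GI50. At the TGI there is no net growth.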

In general, TGI refers to the concentration at which net growth stops. Low readings indicate more potent growth arrest, high ones less potent growth arrest. Regarding `CN(N=O)C(=O)Nc1ccc(C(=O)O)cc1`, the TGI in the assay on OVCAR-3 ovarian, in the assay with SN12C renal, in the assay on DU-145 prostate, with HCT-15 colon, with SF-539 CNS and with NCI/ADR-RES ovarian was over 100 µM in each case. In addition, the TGI in the assay on RPMI-8226 leukemia, with SNB-19 CNS, with OVCAR-5 ovarian and in the assay on SK-MEL-28 melanoma was over 100 µM in each case.

The term GI50 denotes the concentration that inhibits growth by half. On to `CNC1=CC(=O)C2=C(C1=O)C1C3=C(C(=O)C(Br)=C(OC)C3=O)C2c2ccccc21` (configuration not stated), for which the GI50 in the assay on OVCAR-3 ovarian is 1.5 µM; with SN12C renal, 1.05 µM; with DU-145 prostate, 5.9 µM; with HCT-15 colon, 2.06 µM; in the assay on SF-539 CNS, 1.23 µM; with NCI/ADR-RES ovarian it was 1.55 µM. The GI50 is 2.27 µM with RPMI-8226 leukemia, 2.82 µM with SNB-19 CNS, 2.15 µM in the assay with OVCAR-5 ovarian and 2.34 µM in the assay with SK-MEL-28 melanoma. For the same molecule, the TGI is 3.1 µM in the assay with OVCAR-3 ovarian; 2.07 µM with SN12C renal; 20.8 µM in the assay on DU-145 prostate; 10.5 µM with HCT-15 colon; 2.75 µM in the assay on SF-539 CNS; 8.18 µM in the assay on NCI/ADR-RES ovarian. Further, the TGI in the assay with RPMI-8226 leukemia is over 50 µM; with SNB-19 CNS it was 11.6 µM; in the assay with OVCAR-5 ovarian, 8.63 µM; in the assay with SK-MEL-28 melanoma, over 50 µM.

Regarding `OCC#CCCCCOCC#Cc1ccccc1C#CCOCCCCC#CCO`, the GI50 in the assay on OVCAR-3 ovarian is 18.7 µM; in the assay with SN12C renal it was 22.3 µM; in the assay with DU-145 prostate, 17.6 µM; with HCT-15 colon, 16.3 µM; with SF-539 CNS, 17.6 µM; with NCI/ADR-RES ovarian, 23.6 µM. For the same molecule, the GI50 in the assay with RPMI-8226 leukemia was 29.3 µM; in the assay on SNB-19 CNS, 28.9 µM; in the assay with OVCAR-5 ovarian, 48.4 µM; with SK-MEL-28 melanoma, 20.1 µM. Further, the TGI with OVCAR-3 ovarian was found to be 45.7 µM; in the assay with SN12C renal, 39 µM; with DU-145 prostate it was 41.3 µM; in the assay with HCT-15 colon it was 34.7 µM; with SF-539 CNS, 33.2 µM; with NCI/ADR-RES ovarian, 57.9 µM. Further, the TGI in the assay with RPMI-8226 leukemia is 87.8 µM; with SNB-19 CNS, over 100 µM; in the assay on OVCAR-5 ovarian, over 100 µM; in the assay with SK-MEL-28 melanoma, 51.6 µM.

As for `O=C(NCCNC(=O)c1ccc(F)cc1)Nc1ccc(-n2cc(-c3ccncc3)c(-c3ccc(Cl)c(O)c3)n2)cc1`, the 50% growth inhibitory concentration (GI50) with OVCAR-3 ovarian is 0.326 µM; in the assay with SN12C renal, 0.509 µM; with DU-145 prostate it was 0.411 µM; in the assay with HCT-15 colon, 2.12 µM; in the assay with SF-539 CNS, 0.253 µM; with NCI/ADR-RES ovarian, over 100 µM. Further, the GI50 in the assay on SNB-19 CNS is 0.73 µM; in the assay on OVCAR-5 ovarian it was 1.03 µM; in the assay on SK-MEL-28 melanoma, 1.38 µM. Further, the concentration for total growth inhibition (TGI) in the assay on OVCAR-3 ovarian was 1.2 µM; in the assay on SN12C renal, over 100 µM; in the assay with DU-145 prostate, over 100 µM; in the assay with HCT-15 colon it was 7 µM; in the assay on SF-539 CNS, 0.957 µM; in the assay with NCI/ADR-RES ovarian it was over 100 µM. The concentration for total growth inhibition (TGI) is over 100 µM in the assay on SNB-19 CNS, 9.82 µM in the assay with OVCAR-5 ovarian and over 100 µM in the assay on SK-MEL-28 melanoma.

Turning to `Oc1cc2c(cc1C(c1ccc3c(c1)OCO3)N1CCN(C(c3ccc4c(c3)OCO4)c3cc4c(cc3O)OCO4)CC1)OCO2` (configuration not stated), the TGI was 30.8 µM in the assay with OVCAR-3 ovarian; 31 µM in the assay with SN12C renal; 41.3 µM in the assay on DU-145 prostate; 20.3 µM in the assay on HCT-15 colon; 33.9 µM in the assay with SF-539 CNS; 55.4 µM in the assay with NCI/ADR-RES ovarian. In addition, the total growth inhibition concentration (TGI) with SNB-19 CNS was 43.6 µM; in the assay on OVCAR-5 ovarian, 32.6 µM; in the assay on SK-MEL-28 melanoma, 8.46 µM.

As for `Cc1ccc(S(=O)(=O)N[C@@H](Cc2ccccc2)C(=O)CCl)cc1`, the GI50 in the assay with OVCAR-3 ovarian is 9.5 µM; with DU-145 prostate it was 11.1 µM; in the assay with HCT-15 colon it was 10.8 µM; in the assay on SF-539 CNS, 2.26 µM; in the assay on NCI/ADR-RES ovarian, 22.3 µM; with OVCAR-5 ovarian it was 13.7 µM. For the same molecule, the TGI in the assay with OVCAR-3 ovarian was 24.2 µM; in the assay with DU-145 prostate, 26.1 µM; in the assay on HCT-15 colon it was 27.5 µM; with SF-539 CNS, 5.68 µM; in the assay with NCI/ADR-RES ovarian it was 65.7 µM; in the assay on SNB-19 CNS, 47.2 µM. The results for the TGI with OVCAR-5 ovarian and in the assay with SK-MEL-28 melanoma were 65.9 µM and 53.7 µM, respectively.

For `COc1ccc(C2CC(c3cccc(OC)c3)=NN2C(=O)c2cc(OC)c(OC)c(OC)c2)cc1` (configuration not stated), the GI50 in the assay on SN12C renal was 5.03 µM; with DU-145 prostate, 2.66 µM; with HCT-15 colon it was 1.07 µM; with SF-539 CNS, 1.62 µM; in the assay with NCI/ADR-RES ovarian, 1.55 µM; in the assay with RPMI-8226 leukemia, 1.05 µM. For the same molecule, the GI50 with SNB-19 CNS was 3.16 µM; with OVCAR-5 ovarian it was over 21.2 µM; in the assay on SK-MEL-28 melanoma, 12.5 µM. For the same molecule, the concentration for total growth inhibition (TGI) in the assay on SN12C renal is over 100 µM; with DU-145 prostate, over 41.6 µM; with HCT-15 colon, over 100 µM; in the assay on SF-539 CNS, 5.3 µM; in the assay with NCI/ADR-RES ovarian, over 21.1 µM; with RPMI-8226 leukemia, 4.35 µM. Besides, the total growth inhibition concentration (TGI) with SNB-19 CNS, with OVCAR-5 ovarian and in the assay with SK-MEL-28 melanoma was over 100 µM each time.

Regarding `C=C(CN(C)Cc1ccccc1)c1ccc(C(=O)Nc2ccccc2N)cc1`, the GI50 with OVCAR-3 ovarian is 3.56 µM; in the assay with DU-145 prostate, 1.64 µM; in the assay with HCT-15 colon, 2.2 µM; with SF-539 CNS it was 2.02 µM; in the assay with NCI/ADR-RES ovarian, 1.07 µM; in the assay on RPMI-8226 leukemia it was 1.46 µM. Moreover, the figures for the GI50 with SNB-19 CNS, with OVCAR-5 ovarian and with SK-MEL-28 melanoma were 6.47 µM, 5.46 µM and 7.79 µM, respectively. In addition, the total growth inhibition concentration (TGI) in the assay with OVCAR-3 ovarian was 16 µM; with DU-145 prostate, 11.9 µM; with HCT-15 colon, 12.2 µM; in the assay on SF-539 CNS, 12.1 µM; in the assay with NCI/ADR-RES ovarian, 4.94 µM; with RPMI-8226 leukemia, over 50 µM. Besides, the figures for the concentration for total growth inhibition (TGI) with SNB-19 CNS, in the assay on OVCAR-5 ovarian and in the assay on SK-MEL-28 melanoma were 43.2 µM, 21.4 µM and over 50 µM, respectively.
